{"source": "patent US10813920B2", "about": "“Drug for treating corneal endothelium by promoting cell proliferation or inhibiting cell damage” (THE DOSHISHA, priority 2013, dated 2020)", "key": {"[1]": {"test_system": "human corneal endothelial cells", "experiment": "BrdU ELISA, one concentration per agent, human corneal endothelial cells (Example 9)", "type": "cell-based", "conditions": "10 μM SB203580, 1 μM Semapimod, 3 μM BIRB796, 1 μM PH-797804, 3 μM VX-702, 3 μM LY2228820, 3 μM TAK-715, * p<0.01", "method": "The medium was removed from a culture dish culturing human corneal endothelial cells. PBS (-) heated to 37° C. in advance was added thereto and the cells were washed. This operation was repeated twice. After removing the PBS (-) TrypLE Select (×10) (GIBCO, A12177-01) was added and the cells were incubated for 10 minutes at 37° C. (5% CO2). The cells were then suspended in Opti-MEM (GIBCO, 31985-070) and centrifuged for 3 minutes at 1200 rpm to collect the cells. A 96-well plate was treated with an FNC coating mix (50 ml ([…], catalog number: 0407). The human corneal endothelial cells (lot: C1642-P8) were seeded in a Condition Medium for humans in the coated 96-well plate at a ratio of 3000 cells/well. The cells were cultured for 30 hours at 37° C. (5% CO2). After 30 hours, the medium was removed and changed to a serum free medium: Opti-MEM+1% P/S to culture the cells for 18 hours. […] SMC20120918), BIRB796 (Doramapimod) (Selleck Chemicals, catalog number: S1574, lot number: S157402), PH-797804 (Selleck Chemicals, catalog number: S2726, lot number: 01), VX-702 (Selleck Chemicals, catalog number: S6005, lot number: 02), LY2228820 (Selleck Chemicals, catalog number: S1494, lot number: 01), and TAK-715 (Selleck Chemical, catalog number: […] DMSO was added to the control. After 24 hours, a BrdU labeling reagent (Amersham Cell Proliferation Biotrak ELISA System, Version 2, GE Healthcare, catalog number: RPN250) was further added at a ratio of 1:1000 to the DMEM+10% FBS+1% P/S medium. […] DMSO was added to the control. After 24 hours, BrdU ELISA was carried out with Amersham Cell Proliferation Biotrak ELISA System, Version 2 (GE Healthcare, catalog number: RPN250). The absorbance at 450 nm was measured."}, "[2]": {"test_system": "cultured monkey corneal endothelial cells", "experiment": "UV-induced cell death of cultured monkey corneal endothelial cells (phase difference microscope)", "type": "cell-based", "conditions": "UV 100 J/m^2; 9 hours after irradiation; 10 μM SB203580, 3 μM BIRB796, 1 μM PH-797804, 3 μM VX-702, 3 μM LY2228820, 3 μM TAK-715", "method": "1×10^5 cultured monkey corneal endothelial cells were seeded on a 12-well plate coated with an FNC Coating Mix and cultured for about 5 days until reaching confluence under the condition of 5% CO2 at 37° C.\nMedium: Dulbecco's Modified Eagle Medium (DMEM, Gibco, 12320-032), 10% FBS, 1% Penicillin-Streptomycin (nacalai tesque, 26252-94)\nEach inhibitor was then added at the concentration in the above-described Table and the cells were incubated for 16 hours under the condition of 5% CO2 at 37° C. The solvent of each reagent, Dimethyl Sulfoxide, Sterile-filtered (nacalai tesque, 13408-64) MSO, was added to the Control group and the UV group. Gibco DMEM, 1% P/S (penicillin/streptomycin) was used as the medium.\nThe cellular supernatant was then removed and the cells were irradiated with UV (100 J/m^2). After irradiation, cells were again added to a medium containing each inhibitor and cultured for 9 hours. The cell form and apoptosis were observed under a phase difference microscope."}}}
{"compound": "C[S+]([O-])c1ccc(-c2nc(-c3ccncc3)c(-c3ccc(F)cc3)[nH]2)cc1", "note": "(stereo not shown) [SB203580, 4-(4-fluorophenyl)-2-(4-methylsulfinylphenyl)-5-(4-pyridyl)-1H-imidazole]", "values": [{"measurement": "BrdU uptake as a percentage with respect to the control (proliferation)", "setting": "[1]", "result": "promotes proliferation"}, {"measurement": "Cellular disorders (cell death) induced by UV", "setting": "[2]", "result": "suppressed"}]}
{"compound": "CNC(=O)c1ccc(C)c(-n2c(C)cc(OCc3ccc(F)cc3F)c(Br)c2=O)c1", "note": "[PH-797804, 3-(3-bromo-4-((2,4-difluorobenzyl)oxy)-6-methyl-2-oxopyridine-1(2H)-yl)-N,4-dimethylbenzamide]", "values": [{"measurement": "BrdU uptake as a percentage with respect to the control (proliferation)", "setting": "[1]", "result": "promotes proliferation"}, {"measurement": "Cellular disorders (cell death) induced by UV", "setting": "[2]", "result": "suppressed"}]}
{"compound": "CC(C)(C)Cn1c(N)nc2ccc(-c3nc(C(C)(C)C)[nH]c3-c3ccc(F)cc3)nc21", "note": "[LY2228820, 5-(2-(tert-butyl)-5-(4-fluorophenyl)-1H-imidazole-4-yl)-3-neopentyl-3H-imidazo[4,5-b]pyridine-2-amine]", "values": [{"measurement": "BrdU uptake as a percentage with respect to the control (proliferation)", "setting": "[1]", "result": "promotes proliferation"}, {"measurement": "Cellular disorders (cell death) induced by UV", "setting": "[2]", "result": "suppressed"}]}
{"compound": "CCc1nc(-c2cccc(C)c2)c(-c2ccnc(NC(=O)c3ccccc3)c2)s1", "note": "[TAK-715, 2-benzamide-4-[2-ethyl-4-(3-methylphenyl)thiazole-5-yl]pyridine]", "values": [{"measurement": "BrdU uptake as a percentage with respect to the control (proliferation)", "setting": "[1]", "result": "promotes proliferation"}, {"measurement": "Cellular disorders (cell death) induced by UV", "setting": "[2]", "result": "suppressed"}]}
{"compound": "Cc1ccc(-n2nc(C(C)(C)C)cc2NC(=O)Nc2ccc(OCCN3CCOCC3)c3ccccc23)cc1", "note": "[BIRB796, N-[3-tert-butyl-1-(4-methylphenyl)pyrazole-5-yl]-N′-[4-(2-morpholinoethoxy)-1-naphthyl]urea]", "values": [{"measurement": "BrdU uptake as a percentage with respect to the control (proliferation)", "setting": "[1]", "result": "promotes proliferation"}, {"measurement": "Cellular disorders (cell death) induced by UV", "setting": "[2]", "result": "suppressed"}]}
